Patent US7235532B2, “Angiogenic agents and their uses” (Centre National de la Recherche Scientfique, priority 2000, dated 2007)

Assays:
[1] = system: chick embryo chorioallantoic membrane; test: chick embryo chorioallantoic membrane (CAM) vascularization; assay type: in vivo
Experimental: FIGS. 2a, 2b and 2c: Effect of AcSDKP (SEQ ID NO: 1) and of analogues thereof on the vascularization of the chick embryo chorioallantoic membrane (CAM). FIG. 2A discloses SEQ ID NOS: 1 and 27, respectively, in order of appearance.
The following experiments were carried out on the chick embryo chorioallantoic membrane experimental model and the activity of AcSDKP (SEQ ID NO: 1) and of analogues thereof was tested on this model. […] The increase in the density of vascularization varies depending on the dose studied, with a maximum effect for AcSDKP (SEQ ID NO: 1) and AcSDKP-NH2 (SEQ ID NO: 27) at concentrations of between 10^−9 M and 10^−7 M (FIGS. 2a, 2b and 2c).

[2] = system: endothelial cells (EA.hy926); test: formation of vascular tubes in Matrigel in vitro; assay type: cell-based, human; conditions: 6 hours exposure
Experimental: FIG. 3: Effect of AcSDKP (SEQ ID NO: 1) on the formation of vascular tubes, in vitro, by endothelial cells (EA.hy926) in Matrigel.
The maximum stimulations, corresponding to an increase of 60% and 58%, respectively, were observed after exposure of the cells to the tetrapeptide for 6 hours.

normal rats = test: angiography of abdominal walls after injection into abdominal muscle; assay type: in vivo, rat
Experimental: In these experiments, AcSDKP (SEQ ID NO: 1) was injected into the abdominal muscle in normal rats (treatment twice a day for […]). […] It should be emphasized that this effect remains over time (observations made one month after the start of treatment).

total marrow cells = test: adhesion of marrow cells to components of the extracellular matrix, in vitro; assay type: cell-based; conditions: fibronectin, collagen IV and laminin
Excerpt: The optimum concentration of AcSDKP (SEQ ID NO: 1) in this type of model is between 10^−6 and 10^−8 M.

Sprague-Dawley rat = test: vascular invasion in vivo of Matrigel placed under the skin
Excerpt: In vivo, AcSDKP (SEQ ID NO: 1) induces, in a dose-dependent manner, the vascular invasion of Matrigel placed under the skin of the animal (Sprague-Dawley rat). In this experiment, AcSDKP (SEQ ID NO: 1) was mixed with the Matrigel before implantation. Seven days later, the animals were sacrificed and the Matrigel samples were taken and fixed in formol, and were the subject of a histological study. […] For the quantification, the vascular sections were counted on 10 consecutive fields (surface area =32 mm^2) from the richest zone.

[3] = system: endothelial cells originating from bovine brain capillaries (BBC); test: growth of endothelial cells originating from bovine brain capillaries, in vitro; assay type: cell-based
Excerpt: (§1) FIGS. 1a, 1b and 1c: AcSDKP (SEQ ID NO: 1) stimulates the growth of bovine (BBC) and human (HUVEC and EA.hy926) endothelial cells, in vitro.
(§2) The mitogenic effect of AcSDKP (SEQ ID NO: 1) manifests itself at concentrations ranging between 10^−6 and 10^−11 M, with a maximum for 10^−9 M.

[4] = system: human umbilical cord vein endothelial cells (HUVEC); test: growth of human umbilical cord vein endothelial cells, in vitro; assay type: cell-based
Excerpt: as §1, §2

Sprague-Dawley rats = test: pedicled ventral skin flap model; assay type: in vivo, rat; conditions: 5 μg/kg/injection s.c., after surgery then 5 times at 12 hour intervals
Excerpt: Given the ability of angiogenic factors to stimulate, in vivo, the formation of new vessels in lesioned regions which are characterized by a deficiency in vascularization, we studied the effectiveness of AcSDKP (SEQ ID NO: 1) in promoting tissue lesion repair, using a skin flap model. In fact, the distal necrosis of skin flaps generally results from rupturing of the vascular network and therefore from an insufficiency of arterial flow, which poses considerable problems in the fields of plastic and reconstructive surgery.
Pedicled ventral skin flaps (6×6 cm) (left inguinal pedicle) were made in the Sprague-Dawley rats.
AcSDKP (SEQ ID NO: 1) was administered at the dose of 5 μg/kg/ injection (250 μl/injection) immediately after the surgical intervention, and then again 5 times at 12 hour intervals. […] From a macroscopic point of view, the decrease in necrosis is accompanied by the increase in the density of the vascularization over the internal surface of the flaps.

[5] = system: immortalized HUVEC cell line (EA.hy926); test: growth of immortalized HUVEC cell line, in vitro; assay type: cell-based, human
Excerpt: as §1, §2

[6] = system: HUVEC human endothelial cells; test: adhesion of HUVEC to extracellular matrix components, preliminary experiments; assay type: cell-based; conditions: compared with marrow cell results
Excerpt: It is clearly established that these interactions between endothelial cells and the extracellular matrix are determinant for the neovascularization and are involved at various steps of angiogenesis. Specifically, the extracellular matrix influences the proliferation and the migration of vascular endothelial cells, and also their ability to differentiate and to organize into capillaries in order to form new functional vessels suited to their tissue microenvironment.

## CH3CO-Ser-Asp-Lys-Pro-NH2 [AcSDKP-NH2]
[1]
  neovascularization of CAM: significantly induced neovascularization

## CH3CO-Ser-Asp-Lys-Pro-OH (Ac-SDKP-OH) [AcSDKP, tetrapeptide acetyl-Ser-Asp-Lys-Pro]
[2]; 10^−9 M
  increase of total surface area of the vascular network compared to control (maximum stimulation): 60%
[2]; 10^−11 M
  increase of total surface area of the vascular network compared to control (maximum stimulation): 58%
[1]
  neovascularization of CAM: significantly induced neovascularization
Normal rats; 5 μg/kg/injection into abdominal muscle, twice a day, sacrifice day 8
  vascularization of abdominal walls (angiography): more developed vascularization
Normal rats; 50 μg/kg/injection into abdominal muscle
  vascularization of abdominal walls (angiography): No significant modification of the vascularization
Total marrow cells
  adhesion of marrow cells to extracellular matrix components: increases the adhesion
Sprague-Dawley rat; 10^−5 M, Exp. 1
  Number of vessels (% increase compared to control): 60%
Sprague-Dawley rat; 10^−5 M, Exp. 2
  Number of vessels (% increase compared to control): 185%
Sprague-Dawley rat; 10^−6 M, Exp. 2
  Number of vessels (% increase compared to control): 121%
Sprague-Dawley rat; 10^−7 M, Exp. 1
  Number of vessels (% increase compared to control): 294%
Sprague-Dawley rat; 10^−7 M, Exp. 2
  Number of vessels (% increase compared to control): 118%
Sprague-Dawley rat; 10^−7 M, Exp. 3
  Number of vessels (% increase compared to control): 139%
Sprague-Dawley rat; 10^−8 M, Exp. 2
  Number of vessels (% increase compared to control): 223%
Sprague-Dawley rat; 10^−9 M, Exp. 1
  Number of vessels (% increase compared to control): 108%
Sprague-Dawley rat; 10^−9 M, Exp. 2
  Number of vessels (% increase compared to control): 61%
Sprague-Dawley rat; 10^−9 M, Exp. 3
  Number of vessels (% increase compared to control): 197%
Sprague-Dawley rat; mixed with Matrigel before implantation, 7 days
  vessels within the Matrigel compared to control Matrigel: much greater number of vessels
[3]
  concentration of maximum mitogenic effect: 10^−9 M
[3]; in vitro
  growth of endothelial cells: significantly stimulates the growth
[4]
  concentration of maximum mitogenic effect: 10^−9 M
[4]; in vitro
  growth of endothelial cells: significantly stimulates the growth
Sprague-Dawley rats
  increase in survival of the flaps compared to the controls: 10%
[5]; EA.hy926
  concentration of maximum mitogenic effect: 10^−9 M
[5]; EA.hy926, in vitro
  growth of endothelial cells: significantly stimulates the growth
[6]
  adhesion to extracellular matrix components: Comparable results

## FGFb: fibroblast growth factor used as comparison angiogenic factor
Sprague-Dawley rat; 50 ng/ml, Exp. 2
  Number of vessels (% increase compared to control): 297%
